# Measurements: US5536744A, “Imidazolinoxyl derivatives” (Dojindo Laboratories, priority 1993, dated 1996)
# Read-outs that look alike come from different tables or passages of the source.
# Tests used:
# [1] = tested on: circumflex branch of the left coronary artery; assay: Comparative Example 1: blood flow after administration of compound A reduced with ascorbic acid; format: in vivo, mongrel dogs
# Description: The operation of Example 4 was conducted by administering the compound A wherefrom the N-oxyl radical was inactivated only after reducing with ascorbic acid. […] It is therefore apparent that the pharmacological action was due to the radical in the molecule and that the compounds of the present invention are the pharmaceuticals of a new type.
# [2] = Behavior of compound A in blood flow: blood and urine samples determined by electronic spin resonance after the administration; conditions: for clearance (in words) / excretion from the kidney: dog, in vivo
# Description: Thus, within a certain period after the administration, samples of blood and urine were collected and "a concentration of the compound A which was unchanged and retained" and "a total concentration after oxidization with potassium ferricyanide" were determined by means of an electronic spin resonance (RF80; Nippon Denshi).
# [3] = tested on: ring samples of the circumflex branch (coronary artery); assay: In vitro test: relaxation of ring samples of the circumflex branch precontracted by prostaglandin F2α (isometric tension); design: species or system mongrel adult dogs; conditions: for EC50: Canis lupus familiaris, read-out: ED50 value expressed in terms of a minus logarithm of the administered concentration, endothelium absent (converted)
# Description: After an anesthetization of the mongrel adult dogs, the extracted ring samples (outer diameter: about 2 mm) of the circumflex branch were prepared, hung in a chamber filled with 3 ml of a Krebs buffer which was oxidated (with 95% oxygen and 5% […]), balanced with an initial tension of 2 g and subjected to a precontraction by prostaglandin F2α (concentration in the chamber: 2 μM).
# To this was added the compound A on an accumulated manner whereby its concentration in the chamber became from 1 μM to 1 mM and the resulting changes in the isometric tension were measured using a tranducer (manufactured by Minebea) and recorded in a pen recorder (SR6211 manufactured by Graphtec). Incidentally, the changes in the tension were evaluated on a basis that the precontraction by prostaglandin F2α was 100%. In some of the samples, the endothelium was exfoliated (confirmed by a disappearance of the relaxation to 1 μM of acetylcholine) and, furthermore, they were subjected to a pretreatment with Methylene Blue, an inhibitor for a soluble guanylate cyclase, (concentration in the chamber: 10 μM; administered 30 minutes before) whereby the effect was investigated.
# Therefore, it is supposed that the compounds of the present invention activated the guanylate cyclase on a continued basis whereby the blood vessel was continuously relaxed.
# [4] = tested on: circumflex branch of the left coronary artery; assay: Test on the relaxation of coronary arteries: coronary blood flow and blood flow status (haemodynamics) in anesthetized open-chest dogs, intracoronary administration; format: in vivo, mongrel adult dogs; conditions: for Blood Flow at Rotation Branch: 4 min
# Description: Twenty mongrel adult dogs were anesthetized with 30 mg/kg pentobarbital, their breasts were opened under an artificial respiration and heparin (3,000 IU/kg; each 1,000 IU/mg administered intravenously every 30 minutes thereafe) and aspirin (17 mg/kg) were administered. Then a cannula was inserted near the circumflex branch of the left coronary artery and a perfusion was conducted by means of a bypath from the whole left carotid artery. Coronary blood flow was measured, by an electromagnetic blood flowmeter (MFV-3200 manufactured by Nippon Koden) via a probe for measuring the blood flow (manufactured by Nippon Koden) located at the center of the bypath while the artery pressure and the left cardiac pressure were measured at an underarm artery and by means of a catheter inserted from the apex, respectively.
# [5] = tested on: circumflex branch of the left coronary artery; assay: Effect of various pharmaceuticals on coronary blood flow increase by administration of compound A; format: in vivo, mongrel adult dogs; conditions: 1.0 mM in artery
# Description: The compound A was administered for four minutes, by the same manner as in Example 6, to a control group, to a group (LNAME-treated group) which was pretreated with a methyl ester of NG-nitro-L-arginine which was an inhibitor for the production of nitrogen monoxide caused by endothelium (by administering to the coronary artery at the dose of 200 μM for six minutes), to a group (8PT-treated group) which was pretreated with 8-phenyltheophylline which was an adenosnine antagonist (by administering to the coronary artery at the dose of 30 ng/kg/minute) an a group (autonomic nerve blocking group) which was pretreated with a pharmacological autonomic blocking agent (by an intravenous administration of 0.1 mg/kg of atropine, 1 mg/kg of propranolol and 2 mg/kg of phentolamine) to make the concentration of the compound A in the coronary artery 1.0 mM whereby the results were compared.
smiles,measurement,setting,value
CC1(C)N=C(c2ccc(C(=O)O)cc2)N(O)C1(C)C,blood flow after the administration,"[1]; 1.0 mM (FIG. 3), before the administration 22.4 ml/minute",22.8 mL/min
same,pharmacological action (in words),[1]; after reducing with ascorbic acid,completely disappeared
same,change in the blood flow (in words),"[1]; before vs after the administration, FIG. 3",no changes in the blood flow
same,clearance (in words),[2],very prompt
same,excretion from the kidney,[2],rapidly excreted from the kidney
CC1(C)N=C(c2ccc(C(=O)O)cc2)N([O])C1(C)C [Compound A],reduction in blood (stability of N-oxyl radical),"[2]; by ascorbic acid, etc. in blood","quickly reduced by ascorbic acid, etc. in blood"
same,clearance (in words),[2],very prompt
same,excretion from the kidney,[2],rapidly excreted from the kidney
same,total amount of compound A remaining in the blood,[2]; one minute after the administration,about 0.3%
same,influence of the endothelium on coronary artery relaxation (in words),"[3]; 1 μM to 1 mM, with vs without endothelium, FIG. 4",stronger than that in the absence of the endothelium
same,EC50,[3]; no Methylene Blue,10 µM
same,EC50,"[3]; with Methylene Blue 10 μM, 30 minutes before, p<0.01",79.4 µM
same,Av. Blood Pressure,[4]; 0.1 mM in artery,130 ± 8 mmHg
same,Left Cardiac dp/dt,[4]; 0.1 mM in artery,1132 ± 60 mmHg/sec
same,Pres. at Final Stage of Left Cardiac Dilation,[4]; 0.1 mM in artery,11 ± 2 mmHg
same,Pulse Numbers,[4]; 0.1 mM in artery,155 ± 8 min⁻¹
same,Blood Flow at Rotation Branch,[4]; 0.1 mM in artery,29.8 ± 3.6 mL/min
same,Av. Blood Pressure,[4]; 0.3 mM in artery,133 ± 8 mmHg
same,Left Cardiac dp/dt,[4]; 0.3 mM in artery,1210 ± 63 mmHg/sec
same,Pres. at Final Stage of Left Cardiac Dilation,[4]; 0.3 mM in artery,10 ± 2 mmHg
same,Pulse Numbers,[4]; 0.3 mM in artery,154 ± 8 min⁻¹
same,Blood Flow at Rotation Branch,"[4]; 0.3 mM in artery, p < 0.05 to the control",41.5 ± 5.7 mL/min
same,duration of effect on coronary blood flow after completion of the administration,[4]; 1 mM for four minutes,≥ 30 min
same,increase in coronary blood flow (fold),[4]; 1 mM for four minutes,about three
same,increasing rate of coronary blood flow,[4]; 1 mM for four minutes,ca. 200%
same,Av. Blood Pressure,[4]; 1.0 mM in artery,132 ± 7 mmHg
same,Left Cardiac dp/dt,[4]; 1.0 mM in artery,1241 ± 50 mmHg/sec
same,Pres. at Final Stage of Left Cardiac Dilation,[4]; 1.0 mM in artery,10 ± 2 mmHg
same,Pulse Numbers,[4]; 1.0 mM in artery,157 ± 8 min⁻¹
same,Blood Flow at Rotation Branch,"[4]; 1.0 mM in artery, p < 0.01 to the control, 0.1 mM and 0.3 mM",89.7 ± 10.6 mL/min
same,blood pressure (in words),"[4]; 0.1, 0.3 and 1.0 mM in artery",no change
same,contracting power of the heart (in words),"[4]; 0.1, 0.3 and 1.0 mM in artery",rather improved
same,left cardiac dp/dt (in words),"[4]; 0.1, 0.3 and 1.0 mM in artery",increasing tendency
same,pressure at the final stage of the left cardiac dilation (in words),"[4]; 0.1, 0.3 and 1.0 mM in artery",no change
same,pulse numbers (in words),"[4]; 0.1, 0.3 and 1.0 mM in artery",no change
same,coronary blood flow (in words),"[4]; 0.1, 0.3 and 1.0 mM in artery, FIG. 2",significant increase in the coronary blood flow
same,side effect (in words),[4]; intracoronary administration,no side effect was noted
same,% Increase of blood flow in rotary branch,[5]; 8PT-treated group,120 ± 10%
same,"Blood Flow in Rotary Branch, after administration of Compd A","[5]; 8PT-treated group, before 23.1 ± 2.7",51.6 ± 5.8 mL/min
same,influence of pretreatments on the action of the compound A (in words),"[5]; LNAME, 8-phenyltheophylline, autonomic blockade",none of the pharmaceuticals affected on the action of the compound A
same,% Increase of blood flow in rotary branch,[5]; LNAME-treated group,155 ± 28%
same,"Blood Flow in Rotary Branch, after administration of Compd A","[5]; LNAME-treated group, before 26.1 ± 2.7",67.0 ± 11.5 mL/min
same,% Increase of blood flow in rotary branch,[5]; autonomic nerve blocked group,137 ± 56%
same,"Blood Flow in Rotary Branch, after administration of Compd A","[5]; autonomic nerve blocked group, before 19.5 ± 3.3",49.3 ± 18.5 mL/min
same,% Increase of blood flow in rotary branch,[5]; control group,164 ± 31%
same,"Blood Flow in Rotary Branch, after administration of Compd A","[5]; control group, before 32.0 ± 2.1",84.9 ± 13.7 mL/min
"CN(C)c1ccc2nc3ccc(=[N+](C)C)cc-3sc2c1 [Methylene Blue, reference compound]",inhibition of the coronary artery relaxing action of compound A (in words),"[3]; endothelium absent, 10 μM, 30 minutes before",found to inhibit that
